Measured values as given in patent US7351719B2, “Amide compounds having MCH-antagonistic activity and medicaments comprising these compounds” (Boehringer Ingelheim Pharma GmbH & Co. KG, priority 2002, dated 2008).

Target: T1, hMCH-1R (Homo sapiens, UniProt Q99705)
T1 construct: expressed in transfected cells; host or cells: CHO/Galpha16 cells (stably transfected); membranes used
Assay: MCH-1 receptor binding test (125I-MCH binding to hMCH-1R transfected cell membranes)
Settings: hMCH-1R transfected CHO/Galpha16 cell membranes
Protocol: Membranes from CHO/Galpha 16 cells stably transfected with human hMCH-1R are resuspended using a syringe (needle 0.6×25 mm) and diluted in test buffer (50 mM HEPES, 10 mM MgCl2, 2 mM EGTA, pH 7.00; 0.1% bovine serum albumin (protease-free), 0.021% bacitracin,1 μg/mL aprotinin, 1 μg/mL leupeptin and 1 μM phosphoramidone) to a concentration of 5 to 15 μg/mL. […] After the incubation the reaction is filtered using a cell harvester through 0.5% PEI treated glass fibre filters (GF/B, Unifilter Packard). The membrane-bound radioactivity retained on the filter is then determined after the addition of scintillator substance (Packard Microscint 20) in a measuring device (TopCount of Packard).
The analysis of the concentration binding curve is carried out on the assumption of one receptor binding site.

T1 sequence (Q99705 whole entry): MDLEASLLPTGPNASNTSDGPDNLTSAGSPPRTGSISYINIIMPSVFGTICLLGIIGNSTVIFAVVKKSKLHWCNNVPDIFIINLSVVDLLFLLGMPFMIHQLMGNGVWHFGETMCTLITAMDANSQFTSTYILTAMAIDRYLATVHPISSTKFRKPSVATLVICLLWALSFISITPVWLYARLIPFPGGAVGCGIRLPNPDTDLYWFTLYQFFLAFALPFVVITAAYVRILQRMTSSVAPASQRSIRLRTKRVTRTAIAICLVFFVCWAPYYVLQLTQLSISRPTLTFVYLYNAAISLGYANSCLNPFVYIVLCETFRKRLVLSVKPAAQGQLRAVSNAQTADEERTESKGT

CCN(CC)CCn1ccc2cc(NC(=O)COc3ccc(C(F)(F)F)cc3Cl)ccc21 [Example 12]
IC50: 41 nM

CCN(CC)CCOc1ccc(NC(=O)COc2ccc(C(C)(C)C)cc2Cl)cc1Cl [Example 34]
IC50: 17 nM
